Tests used:
[1] = test system: rat cortical neurons; assay: Hypoxia-induced apoptosis of rat cortical neurons; type: cell-based, Wistar rat; conditions: Cortical neurone, oxygen-depleted serum-free medium, Cell Death Detection ELISA (DNA fragmentation)
Method: Cortical neurons are dissociated from Wistar rat embryos (E17) by a modification of the procedure of Rogers et al., Brain Res. Bulletin, 44:131 (1998). Briefly, cerebral cortices are isolated aseptically from 15-20 Wistar rat embryos. A cell suspension is prepared by mincing the cerebral cortices and digesting them with papain. Cells are washed with ovomucoid enzyme inhibitor and DNaseI and plated onto Poly-D lysine coated plates in high glucose DMEM containing 10% heat-inactivated fetal calf serum, L-glutamine, penicillin and streptomycin. The yield of neurons is […] per embryo and they are 80-90% viable as assessed by Trypan blue exclusion.
The neurons are cultured in complete medium at 37° C. in a normal atmosphere for 48 hours prior to the hypoxia experiments. For hypoxia, the normal cell medium is replaced by oxygen-depleted serum-free medium. Cells are incubated in an atmosphere of 95% N2/5% CO2 for various lengths of time. Compounds are dissolved in DMSO at 100 mM then diluted in medium and added to the culture from time=0. The level of apoptosis is measured using a Cell Death Detection ELISA kit (Roche) which detects DNA fragmentation. Plates are read at 405 nm. Controls included cells cultured in aerobic conditions in serum-containing medium (+serum) and cells cultured in aerobic conditions in serum-deprived medium (−serum).
Compounds with an IC50>0.5 μM are listed as “A”. Compounds with an IC50 between 0.1 μM and 0.5 uM are listed as “B”. Compounds with an IC50<0.1 μM are listed as “C”.

[2] = test system: IL-1β secretion from human whole blood; assay: Inhibition of IL-1β secretion from whole blood; type: cell-based; conditions: human whole blood diluted 1:2 in PBS, LPS 5 ng/ml, 18 hours, ELISA
Method: Human blood is freshly drawn from healthy donors and diluted 1:2 in PBS. To 500 μl of diluted blood […] of prediluted test compound in RPMI medium and […] LPS (5 ng/ml final concentration on the plate) are added (LPS, Serotype 0111:B4, Sigma L3012). After stimulation for 18 hours supernatants are collected and assayed for IL-1β levels using the appropriate ELISA kit (R&D systems).
Compounds with an IC50>10 μM are listed as “A”. Compounds with an IC50 between 1 μM and 10 uM are listed as “B”. Compounds with an IC50<1 μM are listed as “C”.

[3] = biological target: T1, recombinant, purified human Caspase-3 (Homo sapiens, UniProt P42574); assay: Enzyme assay, caspase inhibition (fluorogenic substrate cleavage); type: biochemical; conditions: second order rate constant of enzyme inactivation; substrate Acetyl-Asp-Glu-Val-Asp-amino-4-methylcoumarin
T1 sequence (P42574 29-175 limits assumed): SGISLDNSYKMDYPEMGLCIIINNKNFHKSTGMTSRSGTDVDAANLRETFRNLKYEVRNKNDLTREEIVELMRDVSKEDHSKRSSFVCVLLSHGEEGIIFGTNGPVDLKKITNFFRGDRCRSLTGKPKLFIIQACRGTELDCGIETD
T1 sequence (P42574 176-277 limits assumed): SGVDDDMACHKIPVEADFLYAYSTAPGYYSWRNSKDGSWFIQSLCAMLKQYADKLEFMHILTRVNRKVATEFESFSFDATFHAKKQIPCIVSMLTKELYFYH
Source text: (§1) The assays for caspase inhibition are based on the cleavage of a fluorogenic substrate by recombinant, purified human Caspases −1, −3, −7 or −8. The assays are run in essentially the same way as those reported by Garcia-Calvo et al., J. Biol. Chem. 273, 32608-32613 (1998), using a substrate specific for each enzyme. The substrate for Caspase-1 is Acetyl-Tyr-Val-Ala-Asp-amino-4-methylcoumarin and the substrate for Caspases −3, −7 and −8 is Acetyl-Asp-Glu-Val-Asp-amino-4-methylcoumarin both as disclosed in Garcia-Calvo et al., J. Biol. Chem. 273, 32608-32613 (1998).
(§2) The observed rate of enzyme inactivation at a particular inhibitor concentration, kobs, is computed by direct fits of the data to the equation derived by Thornberry et al., Biochemistry, 33, […] (1994) using a nonlinear least-squares analysis computer program (PRISM 2.0; GraphPad software). To obtain the second order rate constant, kinact, kobs values are plotted against their respective inhibitor concentrations and kinact values are subsequently calculated by computerized linear regression.
(§3) Compounds with kinact(M^−1s^−1)>500000 are listed as “A”. Compounds with kinact(M^−1s^−1) between 100000 and 500000 are listed as “B”. Compounds with kinact(M^−1s^−1)<100000 are listed as “C”.

[4] = biological target: T2, recombinant, purified human Caspase-1 (Homo sapiens, UniProt P29466); assay: as above; type: biochemical; conditions: second order rate constant of enzyme inactivation; substrate Acetyl-Tyr-Val-Ala-Asp-amino-4-methylcoumarin
T2 sequence (P29466 120-297 limits assumed): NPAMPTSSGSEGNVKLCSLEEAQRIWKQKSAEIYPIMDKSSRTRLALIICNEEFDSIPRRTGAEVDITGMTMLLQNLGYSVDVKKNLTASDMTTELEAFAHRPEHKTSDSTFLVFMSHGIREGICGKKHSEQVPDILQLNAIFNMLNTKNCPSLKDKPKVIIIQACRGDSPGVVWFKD
T2 sequence (P29466 317-404 limits assumed): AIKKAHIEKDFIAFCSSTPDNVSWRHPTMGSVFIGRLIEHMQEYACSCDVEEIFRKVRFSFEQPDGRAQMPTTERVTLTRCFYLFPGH
Source text: as §1, §2, §3

[5] = biological target: recombinant, purified human Caspase-8 (Homo sapiens, UniProt Q14790); assay: as above; type: biochemical; conditions: second order rate constant of enzyme inactivation; substrate Acetyl-Asp-Glu-Val-Asp-amino-4-methylcoumarin
Chain of recombinant, purified human Caspase-8 (Q14790 217-374 limits assumed): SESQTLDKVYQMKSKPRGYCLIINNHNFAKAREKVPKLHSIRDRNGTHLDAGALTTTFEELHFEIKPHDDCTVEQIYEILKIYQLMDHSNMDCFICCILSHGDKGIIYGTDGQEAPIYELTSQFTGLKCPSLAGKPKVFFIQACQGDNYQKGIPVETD
Chain of recombinant, purified human Caspase-8 (Q14790 385-479 limits assumed): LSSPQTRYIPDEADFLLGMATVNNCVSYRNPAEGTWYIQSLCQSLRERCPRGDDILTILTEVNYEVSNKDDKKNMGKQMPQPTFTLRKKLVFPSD
Source text: as §1, §2, §3

Structure (SMILES)	IC50 [1] [nM]	IC50 [2] [nM]	kinact Caspase-3 [3]	kinact Caspase-1 [4]	kinact Caspase-8 [5]
CC[C@@H](C(=O)NC(CC(=O)O)C(=O)CF)n1cnc2ccc(Oc3cccc(F)c3)cc2c1=O (stereo partly drawn) [Compound 14, 5-Fluoro-3-{(2S)-2[6-(3-fluorophenoxy)-4-oxo-4H-quinazolin-3-yl]-butyrylamino}-4-oxo-pentanoic acid]	> 500	< 1000	A (Compounds with kinact(M^−1s^−1)>500000 are listed as “A”)	A (Compounds with kinact(M^−1s^−1)>500000 are listed as “A”)	B (Compounds with kinact(M^−1s^−1) between 100000 and 500000 are listed as “B”)
CC[C@@H](C(=O)NC(CC(=O)O)C(=O)CF)n1ccc2cc(Cl)ccc2c1=O (mixture of isomers) [Compound 3, (S)-3-[2-(6-chloro-1-oxo-1H-isoquinolin-2-yl)-butyrylamino]-5-fluoro-4-oxo-pentanoic acid]	100 to 500	1000 to 10000	B (Compounds with kinact(M^−1s^−1) between 100000 and 500000 are listed as “B”)	B (Compounds with kinact(M^−1s^−1) between 100000 and 500000 are listed as “B”)	C (Compounds with kinact(M^−1s^−1)<100000 are listed as “C”)
CC[C@@H](C(=O)NC(CC(=O)O)C(=O)CF)n1cnc2ccc(Oc3ccc(Cl)cc3Cl)cc2c1=O (stereo partly drawn) [Compound 15, 3-{(2S)-2-[6-(2,4-Dichloro-phenoxy)-4-oxo-4H-quinazolin-3-yl]-butyrylamino}-5-fluoro-4-oxo-pentanoic acid]	100 to 500	1000 to 10000	B (Compounds with kinact(M^−1s^−1) between 100000 and 500000 are listed as “B”)	B (Compounds with kinact(M^−1s^−1) between 100000 and 500000 are listed as “B”)	A (Compounds with kinact(M^−1s^−1)>500000 are listed as “A”)
CC[C@@H](C(=O)NC(CC(=O)O)C(=O)CF)n1cnc2ccc(Sc3cccc(F)c3)cc2c1=O (stereo partly drawn) [Compound 17, 5-Fluoro-3{(2S)-2[6-(3-fluoro-phenylsulfanyl)-4-oxo-4H-quinazolin-3-yl]-butyrylamino}-4-oxo-pentanoic acid]	100 to 500	1000 to 10000	A (Compounds with kinact(M^−1s^−1)>500000 are listed as “A”)	A (Compounds with kinact(M^−1s^−1)>500000 are listed as “A”)	A (Compounds with kinact(M^−1s^−1)>500000 are listed as “A”)
CC(C)[C@@H](C(=O)NC(CC(=O)O)C(=O)CF)n1ccc2ccc(Cl)cc2c1=O (mixture of isomers) [Compound 18, (S)-3-[2-(7-chloro-1-oxo-1H-isoquinolin-2-yl)-3-methylbutyrylamino]-5-fluoro-4-oxo-pentanoic acid]	100 to 500	1000 to 10000	B (Compounds with kinact(M^−1s^−1) between 100000 and 500000 are listed as “B”)	B (Compounds with kinact(M^−1s^−1) between 100000 and 500000 are listed as “B”)	C (Compounds with kinact(M^−1s^−1)<100000 are listed as “C”)
CC[C@@H](C(=O)NC(CC(=O)O)C(=O)CF)n1ccc2ccc(-c3ccccc3)cc2c1=O (mixture of isomers) [Compound 21, (S)-3-[2-(7-phenyl-1-oxo-1H-isoquinolin-2-yl)-butyrylamino]-5-fluoro-4-oxo-pentanoic acid]	100 to 500	1000 to 10000	A (Compounds with kinact(M^−1s^−1)>500000 are listed as “A”)	A (Compounds with kinact(M^−1s^−1)>500000 are listed as “A”)	A (Compounds with kinact(M^−1s^−1)>500000 are listed as “A”)
CC[C@@H](C(=O)NC(CC(=O)O)C(=O)CF)n1cnc2ccc(Oc3cccc(Cl)c3)cc2c1=O (stereo partly drawn) [Compound 13, 3-[(2S)-2-[6-(3-Chlorophenoxy)-4-oxo-4H-quinazolin-3-yl)-butyrylamino]-5-fluoro-4-oxo-pentanoic acid]	100 to 500	1000 to 10000	B (Compounds with kinact(M^−1s^−1) between 100000 and 500000 are listed as “B”)	B (Compounds with kinact(M^−1s^−1) between 100000 and 500000 are listed as “B”)	A (Compounds with kinact(M^−1s^−1)>500000 are listed as “A”)
CC[C@@H](C(=O)N[C@@H](CC(=O)O)C(=O)COc1c(F)c(F)cc(F)c1F)n1ccc2cc(Cl)c(Cl)cc2c1=O [Compound 11, (S,S)-3-[2-(6,7-dichloro-1-oxo-1H-isoquinolin-2-yl)-butyrylamino]-4-oxo-5-(2,3,5,6-tetrafluoro-phenoxy)-pentanoic acid]	100 to 500	> 10000	A (Compounds with kinact(M^−1s^−1)>500000 are listed as “A”)	A (Compounds with kinact(M^−1s^−1)>500000 are listed as “A”)	C (Compounds with kinact(M^−1s^−1)<100000 are listed as “C”)
CC[C@@H](C(=O)N[C@@H](CC(=O)O)C(=O)COc1c(F)cc(F)cc1F)n1cnc2ccccc2c1=O [Compound 7, (S,S)-4-Oxo-3-[2-(4-oxo-4H-quinazolin-3-yl)-butyrylamino]-5-(2,4,6-trifluoro-phenoxy)-pentanoic acid]	> 500	> 10000	B (Compounds with kinact(M^−1s^−1) between 100000 and 500000 are listed as “B”)	C (Compounds with kinact(M^−1s^−1)<100000 are listed as “C”)	C (Compounds with kinact(M^−1s^−1)<100000 are listed as “C”)
CC[C@@H](C(=O)NC(CC(=O)O)C(=O)CF)n1cnc2ccc(Oc3ccccc3Cl)cc2c1=O (stereo partly drawn) [Compound 12, 3-[(2S)-2-[6-(2-Chloro-phenoxy)-4-oxo-4H-quinazolin-3-yl)-butyrylamino]-5-fluoro-4-oxo-pentanoic acid]	> 500	1000 to 10000	A (Compounds with kinact(M^−1s^−1)>500000 are listed as “A”)	A (Compounds with kinact(M^−1s^−1)>500000 are listed as “A”)	A (Compounds with kinact(M^−1s^−1)>500000 are listed as “A”)

Reference: patent US8129381B2, “Caspase inhibitors and uses thereof” (Vertex Pharmaceuticals Incorporated, priority 2002, dated 2012)
